Test results reported in patent US10160755B2 (Plexxikon Inc., priority 2015, dated 2018).

What was measured:
[1] = molecular target: T1, FLT3-ITD (Homo sapiens, UniProt P36888); assay: FLT3-ITD biochemical kinase assay (AlphaScreen)
T1 construct: FLT3-ITD; Invitrogen #PV6190
T1 sequence (P36888 1-993): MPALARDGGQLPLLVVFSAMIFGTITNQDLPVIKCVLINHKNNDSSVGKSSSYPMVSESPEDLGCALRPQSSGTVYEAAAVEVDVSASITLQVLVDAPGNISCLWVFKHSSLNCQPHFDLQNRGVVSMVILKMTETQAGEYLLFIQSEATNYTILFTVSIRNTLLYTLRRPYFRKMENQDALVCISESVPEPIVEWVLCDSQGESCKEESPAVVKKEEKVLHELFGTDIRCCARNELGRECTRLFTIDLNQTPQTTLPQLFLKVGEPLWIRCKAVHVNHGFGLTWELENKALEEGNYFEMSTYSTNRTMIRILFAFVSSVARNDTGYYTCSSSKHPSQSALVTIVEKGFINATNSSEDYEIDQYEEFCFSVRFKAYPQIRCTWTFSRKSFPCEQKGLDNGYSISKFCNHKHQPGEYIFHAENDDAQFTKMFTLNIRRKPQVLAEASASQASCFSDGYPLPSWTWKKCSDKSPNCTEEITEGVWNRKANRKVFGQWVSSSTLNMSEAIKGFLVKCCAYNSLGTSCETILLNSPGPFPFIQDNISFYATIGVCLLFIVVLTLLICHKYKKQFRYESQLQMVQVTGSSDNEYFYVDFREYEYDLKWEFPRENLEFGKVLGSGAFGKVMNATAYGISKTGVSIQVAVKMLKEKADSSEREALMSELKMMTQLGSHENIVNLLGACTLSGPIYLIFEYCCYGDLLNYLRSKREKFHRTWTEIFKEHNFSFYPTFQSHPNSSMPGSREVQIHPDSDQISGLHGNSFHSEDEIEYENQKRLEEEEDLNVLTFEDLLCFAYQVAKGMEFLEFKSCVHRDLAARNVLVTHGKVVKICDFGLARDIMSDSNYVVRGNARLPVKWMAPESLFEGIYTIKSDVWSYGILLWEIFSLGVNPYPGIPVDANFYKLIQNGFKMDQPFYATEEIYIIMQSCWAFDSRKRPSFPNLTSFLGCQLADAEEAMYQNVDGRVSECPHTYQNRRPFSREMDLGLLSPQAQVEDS
Method in brief: (§1)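 AlphaScreen read-out of tyrosine phosphorylation of a 30 nM biotinylated poly(Glu4-Tyr) substrate, captured on streptavidin donor and PY20 acceptor beads at room temperature. ATP for IC50 work was 100 μM with FLT3-ITD and 10 μM with FLT3-D835Y; reduced 580 nm proximity signal reflects kinase inhibition.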

[2] = molecular target: T2, FLT3-D835Y (Homo sapiens, UniProt P36888, D835Y); assay: FLT3-D835Y biochemical kinase assay (AlphaScreen)
T2 construct: purchased Invitrogen PV3967
T2 sequence (P36888 27-993 D835Y): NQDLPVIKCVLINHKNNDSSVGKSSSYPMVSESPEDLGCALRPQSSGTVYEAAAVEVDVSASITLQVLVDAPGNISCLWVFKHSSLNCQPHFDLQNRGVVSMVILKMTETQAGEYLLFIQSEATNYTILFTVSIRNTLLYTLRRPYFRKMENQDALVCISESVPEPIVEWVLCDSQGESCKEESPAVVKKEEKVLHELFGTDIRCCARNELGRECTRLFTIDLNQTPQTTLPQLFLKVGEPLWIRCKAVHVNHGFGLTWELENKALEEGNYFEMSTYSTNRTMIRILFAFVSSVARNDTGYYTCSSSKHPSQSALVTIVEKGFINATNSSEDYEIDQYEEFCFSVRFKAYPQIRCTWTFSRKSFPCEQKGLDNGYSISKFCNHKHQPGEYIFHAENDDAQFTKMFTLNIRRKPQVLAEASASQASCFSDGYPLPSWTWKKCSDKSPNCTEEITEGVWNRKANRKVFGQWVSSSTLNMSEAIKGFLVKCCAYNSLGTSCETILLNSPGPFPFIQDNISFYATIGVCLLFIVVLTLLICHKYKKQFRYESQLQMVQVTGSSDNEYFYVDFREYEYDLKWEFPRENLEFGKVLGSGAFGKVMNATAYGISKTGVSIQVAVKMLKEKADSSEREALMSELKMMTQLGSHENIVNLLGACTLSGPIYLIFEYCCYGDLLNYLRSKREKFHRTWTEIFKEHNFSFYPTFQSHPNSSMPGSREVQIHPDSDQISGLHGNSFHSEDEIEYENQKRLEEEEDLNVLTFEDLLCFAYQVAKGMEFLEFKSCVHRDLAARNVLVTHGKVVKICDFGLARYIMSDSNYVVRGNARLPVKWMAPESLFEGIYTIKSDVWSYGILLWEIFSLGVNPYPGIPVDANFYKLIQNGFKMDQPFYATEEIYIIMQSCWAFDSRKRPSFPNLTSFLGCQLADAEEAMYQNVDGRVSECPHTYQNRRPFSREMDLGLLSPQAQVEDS
Method in brief: as §1

SMILES | IC50 [1] | IC50 [2]
Cn1cnc2ccc(-c3c[nH]c4ncc(-c5cnn(-c6ccccn6)c5)cc34)cc21 [P-174, 1-methyl-6-[5-[1-(2-pyridyl)pyrazol-4-yl]-1H-pyrrolo[2,3-b]pyridin-3-yl]benzimidazole] | 0.0001 to 1 µM | 0.0001 to 1 µM
CC(C)(C)n1cnc2ccc(-c3c[nH]c4ncc(-c5cccc(OC(F)(F)F)c5)nc34)cc21 [P-191, 7-(3-tert-butylbenzimidazol-5-yl)-2-[3-(trifluoromethoxy)phenyl]-5H-pyrrolo[2,3-b]pyrazine] | 0.0001 to 1 µM | 0.0001 to 1 µM
CC(C)(C)n1cnc2ccc(-c3c[nH]c4ncc(-c5ccc(C#N)c(N6CCCC6)c5)nc34)cc21 [P-335, 4-[7-(3-tert-butylbenzimidazol-5-yl)-5H-pyrrolo[2,3-b]pyrazin-2-yl]-2-pyrrolidin-1-yl-benzonitrile] | 0.0001 to 1 µM | 0.0001 to 1 µM
Cc1cc(-c2cnc3[nH]cc(-c4ccc5ncn(C(C)(C)C)c5c4)c3n2)cnc1C#N [P-355, 5-[7-(3-tert-butylbenzimidazol-5-yl)-5H-pyrrolo[2,3-b]pyrazin-2-yl]-3-methyl-pyridine-2-carbonitrile] | 0.0001 to 1 µM | 0.0001 to 1 µM
COc1cc(-c2cnc3[nH]cc(-c4ccc5c(c4)N(C(C)C)CCO5)c3n2)ccn1 [P-187, 4-isopropyl-6-[2-(2-methoxy-4-pyridyl)-5H-pyrrolo[2,3-b]pyrazin-7-yl]-2,3-dihydro-1,4-benzoxazine] | 0.0001 to 1 µM | 0.0001 to 1 µM
CC(C)(C)n1cnc2ccc(-c3c[nH]c4ncc(-c5cnn(C6CC6)c5)nc34)cc21 [P-350, 7-(3-tert-butylbenzimidazol-5-yl)-2-(1-cyclopropylpyrazol-4-yl)-5H-pyrrolo[2,3-b]pyrazine] | 0.0001 to 1 µM | 0.0001 to 1 µM
CC(C)(C)n1cnc2ccc(-c3c[nH]c4ncc(-c5cnc(C6CC6)nc5)cc34)cc21 [P-340, 1-tert-butyl-6-[5-(2-cyclopropylpyrimidin-5-yl)-1H-pyrrolo[2,3-b]pyridin-3-yl]benzimidazole] | 0.0001 to 1 µM | 0.0001 to 1 µM
CC(=O)Nc1cccc(-c2cnc3[nH]cc(-c4ccc5ncsc5c4)c3n2)c1 [P-159, N-[3-[7-(1,3-benzothiazol-6-yl)-5H-pyrrolo[2,3-b]pyrazin-2-yl]phenyl]acetamide] | 0.0001 to 1 µM | 0.0001 to 1 µM
COc1cc(-c2cnc3[nH]cc(-c4ccc5ncn(C)c5c4)c3n2)cc(C)n1 [P-180, 2-(2-methoxy-6-methyl-4-pyridyl)-7-(3-methylbenzimidazol-5-yl)-5H-pyrrolo[2,3-b]pyrazine] | 0.0001 to 1 µM | 0.0001 to 1 µM
O=C(NC1CC1)c1cccc(-c2cnc3[nH]cc(-c4ccc5ncsc5c4)c3n2)c1 [P-162, 3-[7-(1,3-benzothiazol-6-yl)-5H-pyrrolo[2,3-b]pyrazin-2-yl]-N-cyclopropyl-benzamide] | 0.0001 to 1 µM | 0.0001 to 1 µM
O=C(C1CC1)N1CC=C(c2cnc3[nH]cc(-c4ccc5c(c4)N(CC(F)(F)F)CCO5)c3n2)C1 [P-190] | 0.0001 to 1 µM | 0.0001 to 1 µM
COc1cnc2[nH]cc(-c3cnc4ncn(Cc5ccccc5)c4c3)c2c1 [P-143, 1-benzyl-6-(5-methoxy-1H-pyrrolo[2,3-b]pyridin-3-yl)imidazo[4,5-b]pyridine] | 0.0001 to 1 µM | 0.0001 to 1 µM
N#Cc1cccc(-c2cnc3[nH]cc(-c4ccc5ncsc5c4)c3n2)c1 [P-181, 3-[7-(1,3-benzothiazol-6-yl)-5H-pyrrolo[2,3-b]pyrazin-2-yl]benzonitrile] | 0.0001 to 1 µM | 0.0001 to 1 µM
CCS(=O)(=O)Nc1cccc(-c2cnc3[nH]cc(-c4ccc5ncsc5c4)c3n2)c1 [P-169, N-[3-[7-(1,3-benzothiazol-6-yl)-5H-pyrrolo[2,3-b]pyrazin-2-yl]phenyl]ethanesulfonamide] | 0.0001 to 1 µM | 0.0001 to 1 µM
O=S(=O)(Nc1cnc2[nH]cc(-c3ccc4ncn(C5CCCNC5)c4c3)c2c1)c1cccc(OC(F)(F)F)c1 (stereo not drawn) [P-212, N-[3-[3-(3-piperidyl)benzimidazol-5-yl]-1H-pyrrolo[2,3-b]pyridin-5-yl]-3-(trifluoromethoxy)benzenesulfonamide] | 0.0001 to 1 µM | 0.0001 to 1 µM
CC(C)(C)n1cnc2ccc(-c3c[nH]c4ncc(-c5ccc(S(=O)(=O)N6CCCC6)cc5)nc34)cc21 [P-239, 7-(3-tert-butylbenzimidazol-5-yl)-2-(4-pyrrolidin-1-ylsulfonylphenyl)-5H-pyrrolo[2,3-b]pyrazine] | 0.0001 to 1 µM | 0.0001 to 1 µM
COc1cc(-c2cnc3[nH]cc(-c4ccc5ncn(CC(F)(F)F)c5c4)c3c2)ccn1 [P-108, 5-(2-methoxy-4-pyridyl)-3-[3-(2,2,2-trifluoroethyl)benzimidazol-5-yl]-1H-pyrrolo[2,3-b]pyridine] | 0.0001 to 1 µM | 0.0001 to 1 µM
COc1cc(-c2cnc3[nH]cc(-c4ccc5ncn(C(C)(C)C)c5c4)c3c2)cc(OC)n1 [P-196, 1-tert-butyl-6-[5-(2,6-dimethoxy-4-pyridyl)-1H-pyrrolo[2,3-b]pyridin-3-yl]benzimidazole] | 0.0001 to 1 µM | 0.0001 to 1 µM
CC(C)(C)n1cnc2ccc(-c3c[nH]c4ncc(-c5cnc(C6CC6)nc5)nc34)cc21 [P-342, 7-(3-tert-butylbenzimidazol-5-yl)-2-(2-cyclopropylpyrimidin-5-yl)-5H-pyrrolo[2,3-b]pyrazine] | 0.0001 to 1 µM | 0.0001 to 1 µM
O=S1(=O)CCCN1c1cccc(-c2cnc3[nH]cc(-c4ccc5ncsc5c4)c3n2)c1 [P-170, 2-[3-[7-(1,3-benzothiazol-6-yl)-5H-pyrrolo[2,3-b]pyrazin-2-yl]phenyl]-1,2-thiazolidine 1,1-dioxide] | 0.0001 to 1 µM | 0.0001 to 1 µM
CC(C)(C)n1cnc2ccc(-c3c[nH]c4ncc(C#Cc5ccccc5)nc34)cc21 [P-142, 7-(3-tert-butylbenzimidazol-5-yl)-2-(2-phenylethynyl)-5H-pyrrolo[2,3-b]pyrazine] | 0.0001 to 1 µM | 0.0001 to 1 µM
CCCS(=O)(=O)Nc1cccc(-c2cnc3[nH]cc(-c4ccc5ncn(C)c5c4)c3n2)c1 [P-155, N-[3-[7-(3-methylbenzimidazol-5-yl)-5H-pyrrolo[2,3-b]pyrazin-2-yl]phenyl]propane-1-sulfonamide] | 0.0001 to 1 µM | 0.0001 to 1 µM
COc1cc(-c2cnc3[nH]cc(-c4ccc5ncn(C6CCCC6)c5c4)c3n2)ccn1 [P-114, 7-(3-cyclopentylbenzimidazol-5-yl)-2-(2-methoxy-4-pyridyl)-5H-pyrrolo[2,3-b]pyrazine] | 0.0001 to 1 µM | 0.0001 to 1 µM
COc1cc(-c2cnc3[nH]cc(-c4ccc5ncn(C(C)(C)C)c5c4)c3n2)cc(OC)n1 [P-194, 7-(3-tert-butylbenzimidazol-5-yl)-2-(2,6-dimethoxy-4-pyridyl)-5H-pyrrolo[2,3-b]pyrazine] | 0.0001 to 1 µM | 0.0001 to 1 µM
